Results as given in US20250034135A1, “ANTI-APOPTOTIC PROTEIN BCL-2 INHIBITOR, PHARMACEUTICAL COMPOSITION AND USES THEREOF” (HANGZHOU HEALZEN THERAPEUTICS CO., LTD., priority 2021, published 2025).

Target: BCL2 (Homo sapiens (Human), UniProt P10415)
Experiment: Molecular level activity test of anti-apoptotic protein BCL2 (HTRF, binding to Bim peptide)
Conditions: HTRF, binding of BCL2 to Bim peptide; read-out: BCL2 nM (inhibitory activity, IC50)
Description: The detection of the binding ability between anti-apoptotic protein BCL2 and pro-apoptotic protein Bim was performed using Homogeneous Time-Resolved Fluorescence technology. The reaction of this method occurred in a white shallow 384-well plate, with a total reaction volume of 10 μL. Specifically, it included 2 μL of the compound to be tested (2% DMSO), 4 μL His-tagged recombinant protein, and 4 μL Biotin-tagged BIM protein peptide. After 1 hour of reaction, 5 μL of each Anti-His and streptavidin-tagged XL665 antibody diluents diluted with a detection buffer were added. After incubating at room temperature for 4 hours, the values were read using the Envision multifunctional microplate reader to detect the effect of the compound to be tested on the binding ability of BCL2 to Bim protein peptides.

Sequence of BCL2 (P10415 whole entry): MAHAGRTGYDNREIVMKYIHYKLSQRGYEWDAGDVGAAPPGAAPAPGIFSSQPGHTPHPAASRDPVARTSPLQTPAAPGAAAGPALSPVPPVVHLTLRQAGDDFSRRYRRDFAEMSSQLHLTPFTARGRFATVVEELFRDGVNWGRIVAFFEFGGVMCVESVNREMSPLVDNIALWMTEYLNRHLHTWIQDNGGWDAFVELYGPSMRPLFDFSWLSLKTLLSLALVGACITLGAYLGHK

IC50, < 10 nM:
CC(=O)N1CCC(F)(CNc2c([N+](=O)[O-])cc(S(=O)(=O)NC(=O)c3cnc(N4CCC5(CC4)CC(N4CCC[C@H]4c4ccccc4C(C)C)C5)cc3Oc3cnc4[nH]ccc4c3)c3nc[nH]c23)CC1 [compound 027, (S)-4-((1H-pyrrolo[2,3-b]pyrid-5-yl)oxy)-N-((7-(((1-acetyl-4-fluoropiperid-4-yl)methyl)amino)-6-nitro-1H-benzo[d]imidazol-4-yl)sulfonyl)-6-(2-(2-(2-isopropylphenyl)pyrrolidin-1-yl)-7-azaspiro[3.5]non-7-yl) nicotinamide]
CC(=O)N1CCC(F)(CNc2c([N+](=O)[O-])cc(S(=O)(=O)NC(=O)c3cc(F)c(N4CCC5(CC4)CC(N4CCC[C@H]4c4ccccc4C(C)C)C5)cc3Oc3cnc4[nH]ccc4c3)c3nc[nH]c23)CC1 [compound 028, (S)-2-((1H-pyrrolo[2,3-b]pyrid-5-yl)oxy)-N-((7-(((1-acetyl-4-fluoropiperid-4-yl)methyl)amino)-6-nitro-1H-benzo[d]imidazol-4-yl)sulfonyl)-5-fluoro-4-(2-(2-(2-isopropylphenyl)pyrrolidin-1-yl)-7-azaspiro[3.5]non-7-yl)benzamide]
CC(C)c1ccccc1[C@@H]1CCCN1C1CC2(CCN(c3cc(Oc4cnc5[nH]ccc5c4)c(C(=O)NS(=O)(=O)c4cc([N+](=O)[O-])c(NCC5(F)CCN(C(=O)CN(C)C)CC5)c5[nH]cnc45)cn3)CC2)C1 [compound 029, (S)-4-((1H-pyrrolo[2,3-b]pyrid-5-yl)oxy)-N-((7-(((1-(dimethylglycyl)-4-fluoropiperid-4-yl)methyl)amino)-6-nitro-1H-benzo[d]imidazol-4-yl)sulfonyl)-6-(2-(2-(2-isopropylphenyl)pyrrolidin-1-yl)-7-azaspiro[3.5]non-7-yl) nicotinamide]
CC(C)c1ccccc1[C@@H]1CCCN1C1CC2(CCN(c3cc(Oc4cnc5[nH]ccc5c4)c(C(=O)NS(=O)(=O)c4cc([N+](=O)[O-])c(NCC5(F)CCN(C(=O)CN(C)C)CC5)c5[nH]cnc45)cc3F)CC2)C1 [compound 030, (S)-2-((1H-pyrrolo[2,3-b]pyrid-5-yl)oxy)-N-((7-(((1-(dimethylglycyl)-4-fluoropiperid-4-yl)methyl)amino)-6-nitro-1H-benzo[d]imidazol-4-yl)sulfonyl)-5-fluoro-4-(2-(2-(2-isopropylphenyl)pyrrolidin-1-yl)-7-azaspiro[3.5]non-7-yl)benzamide]
CC(C)c1ccccc1[C@@H]1CCCN1C1CC2(CCN(c3cc(Oc4cnc5[nH]ccc5c4)c(C(=O)NS(=O)(=O)c4cc([N+](=O)[O-])c(NCC5(F)CCN(CC(F)(F)F)CC5)c5[nH]cnc45)cn3)CC2)C1 [compound 031, (S)-4-((1H-pyrrolo[2,3-b]pyrid-5-yl)oxy)-N-((7-(((4-fluoro-1-(2,2,2-trifluoroethyl)piperid-4-yl)methyl)amino)-6-nitro-1H-benzo[d]imidazol-4-yl)sulfonyl)-6-(2-(2-(2-isopropylphenyl)pyrrolidin-1-yl)-7-azaspiro[3.5]non-7-yl) nicotinamide]
CC(C)c1ccccc1[C@@H]1CCCN1C1CC2(CCN(c3cc(Oc4cnc5[nH]ccc5c4)c(C(=O)NS(=O)(=O)c4cc([N+](=O)[O-])c(NCC5(F)CCN(CC(F)(F)F)CC5)c5[nH]cnc45)cc3F)CC2)C1 [compound 032, (S)-2-((1H-pyrrolo[2,3-b]pyrid-5-yl)oxy)-5-fluoro-N-((7-(((4-fluoro-1-(2,2,2-trifluoroethyl)piperid-4-yl)methyl)amino)-6-nitro-1H-benzo[d]imidazol-4-yl)sulfonyl)-4-(2-(2-(2-isopropylphenyl)pyrrolidin-1-yl)-7-azaspiro[3.5]non-7-yl)benzamide]
CC(C)c1ccccc1[C@@H]1CCCN1C1CC2(CCN(c3cc(Oc4cnc5[nH]ccc5c4)c(C(=O)NS(=O)(=O)c4cc([N+](=O)[O-])c(NCC5CCC(N(C)C)CC5)c5[nH]cnc45)cn3)CC2)C1 (stereo partly drawn) [compound 033, 4-((1H-pyrrolo[2,3-b]pyrid-5-yl)oxy)-N-((7-((((1S,4S)-4-(dimethylamino)cyclohexyl)methyl)amino)-6-nitro-1H-benzo[d]imidazol-4-yl)sulfonyl)-6-(2-((S)-2-(2-isopropylphenyl)pyrrolidin-1-yl)-7-azaspiro[3.5]non-7-yl) nicotinamide]
CC(C)c1ccccc1[C@@H]1CCCN1C1CC2(CCN(c3cc(Oc4cnc5[nH]ccc5c4)c(C(=O)NS(=O)(=O)c4cc([N+](=O)[O-])c(NCC5CCC(N(C)C)CC5)c5[nH]cnc45)cc3F)CC2)C1 (stereo partly drawn) [compound 034, 2-((1H-pyrrolo[2,3-b]pyrid-5-yl)oxy)-N-((7-((((1S,4S)-4-(dimethylamino)cyclohexyl)methyl)amino)-6-nitro-1H-benzo[d]imidazol-4-yl)sulfonyl)-5-fluoro-4-(2-((S)-2-(2-isopropylphenyl)pyrrolidin-1-yl)-7-azaspiro[3.5]non-7-yl)benzamide]
CC(C)c1ccccc1[C@@H]1CCCN1C1CC2(CCN(c3cc(Oc4cnc5[nH]ccc5c4)c(C(=O)NS(=O)(=O)c4cc([N+](=O)[O-])c(NC[C@H]5CC[C@](C)(O)CC5)c5c4ncn5C)cn3)CC2)C1 [compound 035, 4-((1H-pyrrolo[2,3-b]pyrid-5-yl)oxy)-N-((7-((((1r,4r)-4-hydroxy-4-methylcyclohexyl)methyl)amino)-1-methyl-6-nitro-1H-benzo[d]imidazol-4-yl)sulfonyl)-6-(2-((S)-2-(2-isopropylphenyl)pyrrolidin-1-yl)-7-azaspiro[3.5]non-7-yl) nicotinamide]
CC(C)c1ccccc1[C@@H]1CCCN1C1CC2(CCN(c3cc(Oc4cnc5[nH]cc(F)c5c4)c(C(=O)NS(=O)(=O)c4cc([N+](=O)[O-])c(NC[C@H]5CC[C@](C)(O)CC5)c5[nH]cnc45)cn3)CC2)C1 [compound 037, 4-((3-fluoro-1H-pyrrolo[2,3-b]pyrid-5-yl)oxy)-N-((7-((((1r,4r)-4-hydroxy-4-methylcyclohexyl)methyl)amino)-6-nitro-1H-benzo[d]imidazol-4-yl)sulfonyl)-6-(2-((S)-2-(2-isopropylphenyl)pyrrolidin-1-yl)-7-azaspiro[3.5]non-7-yl) nicotinamide]
COc1ccc(CN2CCN(C3CC4(CCN(c5ccc(C(=O)NS(=O)(=O)c6cc([N+](=O)[O-])c(NC[C@H]7CC[C@](C)(O)CC7)c7[nH]cnc67)c(Oc6cnc7[nH]ccc7c6)c5)CC4)C3)C(c3ccccc3C(C)C)C2)cc1 (some centres unmarked) [compound 039, 2-((1H-pyrrolo[2,3-b]pyrid-5-yl)oxy)-N-((7-((((1r,4r)-4-hydroxy-4-methylcyclohexyl)methyl)amino)-6-nitro-1H-benzo[d]imidazol-4-yl)sulfonyl)-4-(2-(2-(2-isopropylphenyl)-4-(4-methoxybenzyl)piperazin-1-yl)-7-azaspiro[3.5]non-7-yl)benzamide]
